Results from ChEMBL document CHEMBL1201862, “PubChem BioAssay data set” (2004).
Values joined by “and” are separate entries in the source; they are usually repeats but may differ in a detail not shown here. Equal entries are not always repeated. Structures can show the parent of a compound that is named as a salt. Active and inactive are the calls of the source.

Assays:
[1] = tested on: HEK293; test: EBV LMP1 TES2 canonical NF-kB signalling blockers – cell-based, HEK293, luciferase, cherry-pick, dose response (AID 588343); format: functional; settings: Homo sapiens
[2] = target: T1, Cytochrome P450 2C9 (Homo sapiens, UniProt P11712)
T1 sequence (P11712 whole entry): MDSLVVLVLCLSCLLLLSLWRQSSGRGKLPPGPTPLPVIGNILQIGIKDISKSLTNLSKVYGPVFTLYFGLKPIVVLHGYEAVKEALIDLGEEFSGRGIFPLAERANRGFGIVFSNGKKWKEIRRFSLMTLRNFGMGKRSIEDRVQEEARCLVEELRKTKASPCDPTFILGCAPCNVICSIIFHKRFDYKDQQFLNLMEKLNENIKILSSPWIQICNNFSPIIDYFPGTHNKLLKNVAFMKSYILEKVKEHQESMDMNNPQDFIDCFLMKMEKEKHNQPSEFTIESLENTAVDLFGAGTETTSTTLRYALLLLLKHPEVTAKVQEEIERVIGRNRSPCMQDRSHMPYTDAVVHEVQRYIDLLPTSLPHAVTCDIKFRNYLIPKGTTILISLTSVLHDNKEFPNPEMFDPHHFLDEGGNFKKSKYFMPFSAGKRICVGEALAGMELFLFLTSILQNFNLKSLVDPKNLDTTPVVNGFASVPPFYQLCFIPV

[3] = target: Voltage-gated inwardly rectifying potassium channel KCNH2 (Homo sapiens, UniProt Q12809); settings: Potency;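 also: confirmatory quantitative high-throughput screen measuring inhibition of hERG channel activity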
Voltage-gated inwardly rectifying potassium channel KCNH2, sequence (Q12809 whole entry): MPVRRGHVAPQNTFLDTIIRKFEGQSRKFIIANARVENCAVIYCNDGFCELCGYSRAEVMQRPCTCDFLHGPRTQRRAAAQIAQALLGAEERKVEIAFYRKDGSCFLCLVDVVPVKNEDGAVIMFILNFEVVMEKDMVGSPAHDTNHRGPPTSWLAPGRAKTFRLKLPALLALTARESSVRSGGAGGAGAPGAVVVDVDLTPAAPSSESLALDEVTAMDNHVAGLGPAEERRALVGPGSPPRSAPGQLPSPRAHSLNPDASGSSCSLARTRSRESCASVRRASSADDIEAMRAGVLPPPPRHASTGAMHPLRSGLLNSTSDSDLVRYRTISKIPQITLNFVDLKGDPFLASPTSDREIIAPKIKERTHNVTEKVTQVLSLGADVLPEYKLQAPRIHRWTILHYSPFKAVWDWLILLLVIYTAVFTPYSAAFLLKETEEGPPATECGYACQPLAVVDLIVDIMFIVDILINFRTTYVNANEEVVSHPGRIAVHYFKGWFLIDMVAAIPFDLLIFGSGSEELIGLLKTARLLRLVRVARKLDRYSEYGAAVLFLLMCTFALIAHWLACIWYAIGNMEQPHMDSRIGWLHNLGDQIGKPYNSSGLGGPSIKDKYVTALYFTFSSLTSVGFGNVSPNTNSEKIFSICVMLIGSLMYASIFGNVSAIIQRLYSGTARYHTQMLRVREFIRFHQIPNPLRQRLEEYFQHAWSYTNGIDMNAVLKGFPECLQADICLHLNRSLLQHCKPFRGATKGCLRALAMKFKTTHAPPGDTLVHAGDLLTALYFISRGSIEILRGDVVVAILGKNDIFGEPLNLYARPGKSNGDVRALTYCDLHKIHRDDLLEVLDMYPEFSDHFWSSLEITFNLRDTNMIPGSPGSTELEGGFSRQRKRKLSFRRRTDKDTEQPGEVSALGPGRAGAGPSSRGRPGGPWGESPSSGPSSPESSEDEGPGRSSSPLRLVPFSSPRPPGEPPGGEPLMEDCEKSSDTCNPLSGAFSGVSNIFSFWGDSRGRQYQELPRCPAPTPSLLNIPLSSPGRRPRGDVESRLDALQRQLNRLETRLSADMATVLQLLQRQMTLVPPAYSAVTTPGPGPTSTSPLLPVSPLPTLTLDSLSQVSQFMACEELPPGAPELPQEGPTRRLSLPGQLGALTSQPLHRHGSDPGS

[4] = target: T1, Cytochrome P450 2C9; remark: listed apart in the source
[5] = target: Cytochrome P450 3A4 (Homo sapiens, UniProt P08684);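 also: CYP3A4 tested as one member of a cytochrome P450 panel screen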
Cytochrome P450 3A4, sequence (P08684 whole entry): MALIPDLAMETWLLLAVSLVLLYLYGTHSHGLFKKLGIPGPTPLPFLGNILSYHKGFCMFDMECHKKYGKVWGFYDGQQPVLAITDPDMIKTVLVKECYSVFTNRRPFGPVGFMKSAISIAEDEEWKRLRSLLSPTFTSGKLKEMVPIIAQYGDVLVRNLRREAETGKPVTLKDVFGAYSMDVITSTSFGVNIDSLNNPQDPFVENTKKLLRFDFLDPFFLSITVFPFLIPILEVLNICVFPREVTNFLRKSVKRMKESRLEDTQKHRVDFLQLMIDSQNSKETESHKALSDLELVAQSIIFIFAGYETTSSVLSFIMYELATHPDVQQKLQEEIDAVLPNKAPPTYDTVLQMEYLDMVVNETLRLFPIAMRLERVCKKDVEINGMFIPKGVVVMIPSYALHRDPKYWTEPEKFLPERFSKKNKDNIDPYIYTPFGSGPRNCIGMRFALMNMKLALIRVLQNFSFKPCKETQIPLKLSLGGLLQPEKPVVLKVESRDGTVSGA

[6] = intracellular Trypanosoma cruzi inhibitors in host cells – cell-based, plate reader, cherry-pick samples, set 3, dose response (AID 651818); format: functional;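 also: compounds incubated with infected cells for about four days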
[7] = HIV-1 AD8 envelope cell-cell fusion blockers – cherry-pick, dose response (AID 652062); format: functional, cell-based;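 also: luciferase signal from cell-cell fusion driven by HIV-1 clade B AD8 Env; potency is for inhibitors of fusion seen as a drop in luminescence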
[8] = blockers of HIV-1 ZM109 envelope-driven cell-cell fusion – HeLa effector, CEM target cells, luciferase, cherry-pick, dose response (AID 652058); format: functional, cell-based;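 also: luciferase signal from HIV-1 Env mediated cell-cell fusion of effector and target cells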
[9] = blockers of HIV-1 envelope-mediated cell-cell fusion – cherry-pick, dose response (AID 652057); format: functional, cell-based
[10] = target: Albumin (Bos taurus, UniProt P02769); test: Counterscreen for inhibitors of T-cell receptor (TCR)-CD3 interaction: Fluorescence-based biochemical high throughput dose response assay to identify inhibitors of T-cell receptor (TCR)-CD3 interaction using a TAMRA-labeled BSA probe.; format: functional
[11] = target: T2, Fatty acid synthase (Homo sapiens, UniProt P49327); test: inhibition of human FAS-TE enzyme activity – biochemical, kinetic fluorescence intensity, dose response (AID 624326); format: functional;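 also: rate of fluorescence rise from hydrolysis of a fluorogenic O-methyl fluorescein ester substrate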
T2 sequence (P49327 whole entry): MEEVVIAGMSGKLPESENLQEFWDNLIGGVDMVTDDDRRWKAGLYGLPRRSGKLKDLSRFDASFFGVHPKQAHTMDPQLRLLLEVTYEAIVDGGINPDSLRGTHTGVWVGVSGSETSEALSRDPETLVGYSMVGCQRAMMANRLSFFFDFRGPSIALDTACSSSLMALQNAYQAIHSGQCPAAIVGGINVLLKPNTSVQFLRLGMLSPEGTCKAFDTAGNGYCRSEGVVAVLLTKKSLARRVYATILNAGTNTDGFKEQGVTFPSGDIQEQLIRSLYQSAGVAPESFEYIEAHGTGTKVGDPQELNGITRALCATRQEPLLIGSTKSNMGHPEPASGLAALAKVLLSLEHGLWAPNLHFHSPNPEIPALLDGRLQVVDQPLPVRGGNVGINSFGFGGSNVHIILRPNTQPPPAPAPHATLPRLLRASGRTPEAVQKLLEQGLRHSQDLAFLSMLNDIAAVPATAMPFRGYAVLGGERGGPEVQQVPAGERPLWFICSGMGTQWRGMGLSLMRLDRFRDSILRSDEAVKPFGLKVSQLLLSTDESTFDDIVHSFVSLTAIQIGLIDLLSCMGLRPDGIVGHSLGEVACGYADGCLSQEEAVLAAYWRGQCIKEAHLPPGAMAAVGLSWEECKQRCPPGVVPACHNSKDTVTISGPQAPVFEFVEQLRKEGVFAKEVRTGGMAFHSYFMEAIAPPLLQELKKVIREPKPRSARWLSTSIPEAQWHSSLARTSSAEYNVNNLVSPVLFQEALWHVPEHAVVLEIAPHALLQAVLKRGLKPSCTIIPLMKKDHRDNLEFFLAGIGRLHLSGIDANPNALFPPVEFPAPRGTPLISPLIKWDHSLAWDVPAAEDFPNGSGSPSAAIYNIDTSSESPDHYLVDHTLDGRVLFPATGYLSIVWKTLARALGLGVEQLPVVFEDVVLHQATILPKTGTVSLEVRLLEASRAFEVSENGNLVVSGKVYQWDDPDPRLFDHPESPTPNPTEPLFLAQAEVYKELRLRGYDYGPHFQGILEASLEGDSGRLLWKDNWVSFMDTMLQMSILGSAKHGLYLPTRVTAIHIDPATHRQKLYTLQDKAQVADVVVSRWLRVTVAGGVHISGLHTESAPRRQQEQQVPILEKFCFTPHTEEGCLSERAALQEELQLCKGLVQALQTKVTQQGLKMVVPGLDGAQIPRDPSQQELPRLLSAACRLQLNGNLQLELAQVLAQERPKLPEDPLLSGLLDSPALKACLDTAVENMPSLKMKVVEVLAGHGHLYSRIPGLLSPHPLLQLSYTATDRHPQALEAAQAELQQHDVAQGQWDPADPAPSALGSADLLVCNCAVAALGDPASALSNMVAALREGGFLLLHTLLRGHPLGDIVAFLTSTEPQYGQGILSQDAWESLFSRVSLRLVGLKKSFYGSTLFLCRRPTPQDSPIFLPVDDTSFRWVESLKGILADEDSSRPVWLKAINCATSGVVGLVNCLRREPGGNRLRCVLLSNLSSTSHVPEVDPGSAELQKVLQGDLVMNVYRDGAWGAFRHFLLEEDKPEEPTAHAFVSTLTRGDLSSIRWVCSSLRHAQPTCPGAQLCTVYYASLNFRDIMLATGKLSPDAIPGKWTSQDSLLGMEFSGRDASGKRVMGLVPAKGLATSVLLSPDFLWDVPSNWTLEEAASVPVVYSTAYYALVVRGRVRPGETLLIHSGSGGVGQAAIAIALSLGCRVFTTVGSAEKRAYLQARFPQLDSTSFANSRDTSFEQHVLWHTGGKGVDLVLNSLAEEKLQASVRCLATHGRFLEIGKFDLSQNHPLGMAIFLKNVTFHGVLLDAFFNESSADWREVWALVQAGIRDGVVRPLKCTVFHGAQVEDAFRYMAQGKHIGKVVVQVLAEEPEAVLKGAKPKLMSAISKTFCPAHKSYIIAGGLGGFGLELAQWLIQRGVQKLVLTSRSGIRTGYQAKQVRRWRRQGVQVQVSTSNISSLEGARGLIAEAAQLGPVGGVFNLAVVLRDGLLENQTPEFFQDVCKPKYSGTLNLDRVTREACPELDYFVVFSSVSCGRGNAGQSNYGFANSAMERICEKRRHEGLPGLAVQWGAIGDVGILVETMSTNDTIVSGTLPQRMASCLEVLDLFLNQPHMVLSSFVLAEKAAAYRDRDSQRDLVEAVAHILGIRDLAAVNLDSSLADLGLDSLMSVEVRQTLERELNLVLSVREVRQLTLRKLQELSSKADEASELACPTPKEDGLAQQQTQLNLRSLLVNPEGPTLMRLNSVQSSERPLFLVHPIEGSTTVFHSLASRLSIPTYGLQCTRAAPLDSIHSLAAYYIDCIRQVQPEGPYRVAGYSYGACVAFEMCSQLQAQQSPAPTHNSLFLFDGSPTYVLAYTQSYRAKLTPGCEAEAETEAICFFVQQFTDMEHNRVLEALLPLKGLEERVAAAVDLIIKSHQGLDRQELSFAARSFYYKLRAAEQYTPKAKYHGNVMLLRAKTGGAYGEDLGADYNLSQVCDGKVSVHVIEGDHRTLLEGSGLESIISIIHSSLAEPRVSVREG

[12] = target: T2, Fatty acid synthase; test: inhibition of human FAS-TE enzyme activity – biochemical, endpoint fluorescence intensity, uHTS hits, dose response (AID 624327); format: functional;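 also: fluorescence from hydrolysis of an O-methyl fluorescein acyl ester substrate by the enzyme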
[13] = target: Glucose-6-phosphate 1-dehydrogenase (Homo sapiens, UniProt P11413); test: inhibition of Homo sapiens G6PD, dose series – biochemical, fluorescence, selectivity assay for P. falciparum G6PD inhibitor project, dose response (AID 504792); format: functional
[14] = target: T3, Heat shock factor protein 1 (Mus musculus, UniProt P38532); test: enhancement of HSF1-driven luciferase signal – cell-based, NIH3T3, luminescence, dose retest, confirmation (AID 435004); format: functional;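 also: stress induced by proteasome inhibitor MG132 added 30 min after compound; luciferase reporter driven by HSF1 response element in NIH3T3 cells; actives raise luminescence as potentiators of the MG132 stress response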
T3 sequence (P38532 whole entry): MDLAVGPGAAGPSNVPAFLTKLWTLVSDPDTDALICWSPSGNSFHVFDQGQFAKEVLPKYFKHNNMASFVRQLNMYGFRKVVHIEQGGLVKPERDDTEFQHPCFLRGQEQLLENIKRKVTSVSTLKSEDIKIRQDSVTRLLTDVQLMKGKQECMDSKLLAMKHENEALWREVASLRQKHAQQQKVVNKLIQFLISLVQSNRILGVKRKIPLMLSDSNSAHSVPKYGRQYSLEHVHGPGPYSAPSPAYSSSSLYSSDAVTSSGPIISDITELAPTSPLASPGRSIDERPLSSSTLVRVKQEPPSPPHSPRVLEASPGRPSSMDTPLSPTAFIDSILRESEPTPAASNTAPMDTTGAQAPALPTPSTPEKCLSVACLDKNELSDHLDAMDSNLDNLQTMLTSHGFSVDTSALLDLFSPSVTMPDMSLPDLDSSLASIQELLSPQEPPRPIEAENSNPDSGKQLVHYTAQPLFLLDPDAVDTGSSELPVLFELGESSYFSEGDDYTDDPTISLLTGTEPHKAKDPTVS

[15] = viability loss in THP-1 monocytes – THP-1 cells, cytotoxicity control for Vif-APOBEC3G degradation inhibitor project, dose response (AID 1117359); format: functional; settings: THP-1
[16] = HEK-293T cell viability reduction – luminescence, B-cell screen hits, cytotoxicity control for BCR NF-kB inhibitor project, dose response (AID 489021); format: functional, cell-based;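 also: HEK-293T cells carrying an NF-kB luciferase reporter; cells exposed to compound for about 14 hours before viability readout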
[17] = target: T4, Ubiquitin-conjugating enzyme E2 N (Homo sapiens, UniProt P61088); format: functional;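 also: Dose-response confirmation in a TR-FRET assay detecting UBC13-driven polyubiquitin chain formation, inhibition measured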
T4 sequence (P61088 whole entry): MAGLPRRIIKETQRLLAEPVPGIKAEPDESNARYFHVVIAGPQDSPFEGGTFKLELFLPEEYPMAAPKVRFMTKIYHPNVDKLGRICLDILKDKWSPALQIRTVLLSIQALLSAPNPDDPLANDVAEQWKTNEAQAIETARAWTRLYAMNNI

In the case of `Oc1ccc(C=NNC(=S)Nc2ccccc2)nc1`, the AC50 [1] is reported as 14.6 µM (active).
In the case of `COc1[nH]c2ccc(F)cc2c1C(=O)OCC1CCN(CCNS(C)(=O)=O)CC1.NS(=O)(=O)O`, the AC50 [2] is reported as 39.8 µM (inconclusive), the AC50 [3] is reported as 35.5 µM (inconclusive) and the AC50 [4] is reported as “inconclusive”. For the same compound, the AC50 [5] was 12.6 µM (inconclusive) and 31.6 µM (inconclusive).
In the case of `C[C@@H]1CCCCO[C@H](CN(C)C(=O)Nc2ccc(C(F)(F)F)cc2)[C@@H](C)CN([C@H](C)CO)C(=O)c2cc(NC(=O)Nc3ccccc3)ccc2O1`, the AC50 [6] is reported as 2.02 µM (active).
For `C[C@@H]1CN([C@H](C)CO)C(=O)Cc2cc(NC(=O)Nc3ccc(C(F)(F)F)cc3)ccc2O[C@@H]1CN(C)Cc1ccc(C(=O)Nc2ccccc2N)cc1`, the AC50 [6] was 2.41 µM (active).
For `C[C@H]1CN([C@@H](C)CO)C(=O)Cc2cc(NC(=O)Nc3cccc4ccccc34)ccc2O[C@H]1CN(C)Cc1ccc(C(F)(F)F)cc1`, the AC50 [6] was 5.49 µM (active).
With `C[C@@H]1CN([C@H](C)CO)C(=O)Cc2cc(NC(=O)C3CCCCC3)ccc2O[C@@H]1CN(C)Cc1ccc(C(=O)Nc2ccccc2N)cc1` the AC50 [6] was 3.51 µM (active).
For `COc1ccc(NC(=O)Nc2ccc3c(c2)CC(=O)N([C@@H](C)CO)C[C@H](C)[C@@H](CN(C)Cc2ccc(C(=O)Nc4ccccc4N)cc2)O3)cc1`, the AC50 [6] was 3.65 µM (active).
In the case of `CO[C@H](CN(C)S(=O)(=O)c1ccc(Cl)cc1)[C@H](C)CN([C@@H](C)CO)S(=O)(=O)c1cccc(Cl)c1`, the AC50 [7] is reported as 17.6 µM (active), the AC50 [8] is reported as 3.66 µM (active) and the AC50 [9] is reported as 3.31 µM (active).
In the case of `O=C(C[C@H]1C[C@H]2c3cc(NC(=O)NC4CCCC4)ccc3O[C@H]2[C@@H](CO)O1)NC1CCCCC1`, the AC50 [7] is reported as 1.17 µM (active) and the AC50 [8] is reported as 24.5 µM (active).
With `O=C(NC(C(=O)N/N=C/c1cc([N+](=O)[O-])ccc1O)c1nnc(O)c2ccccc12)c1ccccc1` (configuration not stated) the IC50 [10] was > 94.1 µM (inactive), the IC50 [11] was 2.55 µM (active) and the IC50 [12] was 2.76 µM (active).
In the case of `C=CCN1CCc2cccc3c2[C@H]1Cc1ccc(O)c(O)c1-3`, the IC50 [13] is reported as > 80 µM (inactive), the EC50 [14] is reported as > 260 µM (inactive) and the CC50 [15] is reported as > 40 µM (active). The AC50 [3] was 11.2 µM (inconclusive).
With `COc1cc(-c2nc3ccc(N4CCN(C)CC4)cc3[nH]2)cc(OC)c1OC` the IC50 [16] was > 80 µM (inactive) and the IC50 [17] was > 20 µM (inactive).
For `NCCc1ccc(S(=O)(=O)F)cc1` [4-AMINOETHYLBENZENESULFONYL FLUORIDE HYDROCHLORIDE], the AC50 [3] was 0.251 µM (inconclusive).
With `O=NN(CCO)CCO` [N-NITROSODOETHANOLAMINE] the AC50 [3] was 3.16 µM (inconclusive).
For `O=C(Oc1ccccc1)c1ccccc1O` [PHENYL SALICYLATE], the AC50 [3] was 50.1 µM (inconclusive).
